What is called IC50 is the point on the concentration scale where inhibition reaches its midpoint.

The target of the experiment is PD-1/PD-L1 (Homo sapiens (Human), UniProt Q9NZQ7). Kind of experiment: PD-1/PD-L1 Homogeneous Time-Resolved Fluorescence (HTRF) Binding Assay. Conditions: ~3 nM of PD1, 10 nM of PD-L1; 25° C., PBS buffer (pH 7.4). On the procedure: Assays were performed in standard black 384-well polystyrene plates and a final volume was 20 µL. The inhibitor was first serially diluted with DMSO and added to the wells of the plate, then other reaction components were added. The final concentration of DMSO in the assay was 1%. Assays were performed at 25° C. in PBS buffer (pH 7.4) containing 0.05% Tween-20 and 0.1% BSA. Recombinant human PD-L1 protein (19-238) with a His-tagged at the C-terminus was purchased from AcroBiosystems (PD1-H5229). Recombinant human PD-1 protein (25-167) with an Fc tag at the C-terminus was also purchased from AcroBiosystems (PD1-H5257). The PD-L1 and PD-1 proteins were diluted in assay buffer and then 0.1 µl of the solution was extracted and added to the wells of the plate. Plates were centrifuged and proteins and inhibitors were preincubated for 40 minutes. After incubation, 0.1 µl of HTRF detection buffer containing europium […] labeled anti-human IgG (PerkinElmer-AD0212), Fc-specific and anti-His SureLight®-Allophycocyanin (APC, PerkinElmer-AD0059H) conjugated antibodies was added. After centrifugation, the plates were incubated at 25° C. for 60 minutes. Data was read in a PHERAstar FS plate reader (665 nm/620 nm ratio). Final concentrations in the assay were ~3 nM of PD1, 10 nM of PD-L1, 1 nM of europium anti-human IgG, and 20 nM of anti-His-allophycocyanin. Activity data were fitted using GraphPad Prism 5.0 software to derive IC50 values for inhibitors. The IC50 values of the compounds exemplified in the examples are expressed in the following manner: IC50: + = ≤100 nM; ++ =100 nM-1000 nM; +++ = >1000 nM. The data of the example compounds obtained by PD-1/PD-L1 homogeneous time-resolved fluorescence (HTRF) binding assay described in Example A were provided in Table 1.
(In general: Time-resolved FRET reads energy transfer from a long-lived donor to a nearby acceptor.)

Each structure is given as a SMILES string.

Sequence of PD-1/PD-L1 (Q9NZQ7 19-238): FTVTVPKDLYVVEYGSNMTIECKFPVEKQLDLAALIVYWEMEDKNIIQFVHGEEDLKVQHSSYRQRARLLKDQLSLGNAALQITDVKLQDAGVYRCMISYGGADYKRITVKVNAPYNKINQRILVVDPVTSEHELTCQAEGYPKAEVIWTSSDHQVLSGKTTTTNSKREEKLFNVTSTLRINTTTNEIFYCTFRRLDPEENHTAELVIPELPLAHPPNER

Regarding `COc1nc(O[C@@H]2CCc3c(-c4cccc(Nc5nccc6cc(CN7CC[C@@H](C(=O)O)C7)cnc56)c4C)cccc32)cnc1CN1CC[C@@H](O)C1` [Compound 4], the IC50 is not above 0.1 µM.

For `COc1nc(O[C@@H]2CCc3c(-c4cccc(Nc5nccc6cc(CN7CC[C@@H](C(=O)O)C7)cnc56)c4Cl)cccc32)cnc1CN1CC[C@@H](O)C1` [Compound 12], the IC50 was not above 0.1 µM.

The molecule `COc1nc(O[C@@H]2CCc3c(-c4cccc(Nc5nccc6cc(CN7CC[C@H](O)C7)cnc56)c4Cl)cccc32)cnc1CN1CC[C@@H](C(=O)O)C1` [Compound 13] returned a half-maximal inhibitory concentration (IC50) not above 0.1 µM.

`COc1nc(O[C@@H]2CCc3c(-c4cccc(Nc5nccc6cc(CN7CC[C@@H](C(=O)O)C7)cnc56)c4C)cccc32)ccc1CN1CC[C@@H](O)C1` [Compound 7] returned a half-maximal inhibitory concentration (IC50) not above 0.1 µM.

Molecule `COc1nc(O[C@@H]2CCc3c(-c4cccc(-c5nc6cc(CN7CC[C@@H](C(=O)O)C7)cc(C#N)c6o5)c4C)cccc32)ccc1CN1CC[C@@H](O)C1` [Compound 6] came in with a half-maximal inhibitory concentration (IC50) not above 0.1 µM.

For `COc1nc(O[C@@H]2CCc3c(-c4cccc(-c5nc6cc(CN7CC[C@@H](O)C7)cc(C#N)c6o5)c4C)cccc32)cnc1CN1CC[C@@H](C(=O)O)C1` [Compound 9], the half-inhibitory concentration (IC50) is not above 0.1 µM.

Turning to `COc1nc(O[C@@H]2CCc3c(-c4cccc(Nc5nccc6cc(CN7CC[C@@H](C(=O)O)C7)cnc56)c4Cl)cccc32)ccc1CN1CC[C@@H](O)C1` [Compound 10], the IC50 was not above 0.1 µM.

In turn, `COc1nc(O[C@@H]2CCc3c(-c4cccc(Nc5nccc6cc(CN7CC[C@@H](O)C7)cnc56)c4C)cccc32)ccc1CN1CC[C@@H](C(=O)O)C1` [Compound 3] gave an IC50 not above 0.1 µM.

`COc1nc(O[C@@H]2CCc3c(-c4cccc(Nc5nccc6cc(CN7CC[C@@H](O)C7)cnc56)c4C)cccc32)cnc1CN1CC[C@@H](C(=O)O)C1` [Compound 5] came in with an IC50 not above 0.1 µM.

In turn, `COc1nc(O[C@@H]2CCc3c(-c4cccc(-c5nc6cc(CN7CC[C@@H](C(=O)O)C7)cc(C#N)c6o5)c4C)cccc32)cnc1CN1CC[C@@H](O)C1` [Compound 8] registered a half-inhibitory concentration (IC50) not above 0.1 µM.

Source of the values: patent US20230357219A1, “PREPARATION OF BIARYL RING-LINKED AROMATIC HETEROCYCLIC DERIVATIVE AS IMMUNOMODULATOR AND USE THEREOF” (SHANGHAI LONGWOOD BIOPHARMACEUTICALS CO., LTD., priority 2020, published 2023).
